Test results published in patent publication US20260248771A1, “VALBENAZINE, A VMAT2 INHIBITOR, AS A FREE BASE A TOSYLATE OR DITOSYLATE SALT, FOR USE IN THE TREATMENT OF CHOREA ASSOCIATED WITH HUNTINGTON'S DISEASE” (Neurocrine Biosciences, Inc., priority 2022, published 2026).

Columns and labels:
Assay type in all cases: in vivo, human
subjects with HD [1] = assay: Phase 3 study: Patient Global Impression of Change (PGI-C) response status
From the text: In certain embodiments, the method is effective to result in an improvement in Patient Global Impression of Change (PGI-C) response status, wherein subjects whose score is either a 1 (“very much improved”) or a 2 (“much improved”) in PGI-C were classified as responders. In certain embodiments, at least about 20%, such as at least about 25%, at least about 30%, at least about 35%, at least about 40%, at least about 50%, at least about 55%, were classified as responders. In certain embodiments, at least about 25% of subjects were classified as responders after 12 weeks of treatment.
(§1) A Phase 3, randomized, double-blind, placebo-controlled study to evaluate the efficacy, safety, and tolerability of once-daily valbenazine in subjects with HD was conducted. The study included a 4-week screening period, an 8-week dose-adjustment period, a 4-week maintenance period, and a final study visit 2 weeks following the final dose of study drug.
Secondary endpoints included: • Clinical Global Impression of Change (CGI-C) response status ([…] of “very much improved” or “much improved”) at Week 12; • Patient Global Impression of Change (PGI-C) response status ([…] of “very much improved” or “much improved”) at Week 12; • Change from baseline to Week 12 in the Quality of Life in Neurological Disorders Upper Extremity Function; and • Change from baseline to Week 12 in the Neuro-QoL Lower Extremity Function.
(§2) Exploratory endpoints included: • Wearable movement sensors (in select sites; optional participation) using MC10 Inc., BIOSTAMP® NPOINT® system • Huntington Disease Health Index • Changes from the screening period baseline to each postbaseline study visit (Weeks 2 through 12) in the TMC based on site assessments • Changes from the screening period baseline to maintenance (the average of the Week 10 and Week 12 assessments) in the TMC based on video recording central rater assessments • CGI-C response at Weeks 2 through 10 • PGI-C response at Weeks 2 through 10 • The change from baseline to Weeks 4, 8, and 10 in the Neuro-QoL Upper Extremity Function T-score. • The change from baseline to Weeks 4, 8, and 10 in the Neuro-QoL Lower Extremity Function T-score • CGI-S at Weeks 2 through 12 • PGI-S at Weeks 2 through 12 • SF-36 at Week 12 • HD-HI at Week 10 and Week 12 • EQ-5D-5L at Week 10 and Week 12 • UHDRS scores for motor, behavior, and functional capacity assessment at Weeks 2 through 12 • Other UHDRS scores including functional assessment and independence scale at Week 12 • AS at Week 12 • Change from screening period in physical activity by movement sensors at the Week 10 visit period

subjects with HD [2] = assay: Phase 3 study: Neuro-QoL Upper Extremity Function T-score
From the text: (§3) As used herein, “Neuro-QoL” is a set of self-report measures that assesses the health-related quality of life (HRQOL) of adults and children with neurological disorders. Neuro-QoL Upper Extremity Function scale measures one's ability across fine motor and activities of daily living involving digital, manual and reach-related function and self-care. Neuro-QoL Lower Extremity Function scale measures one's ability to carry out various activities involving the trunk region and increasing degrees of bodily movement, ambulation, balance or endurance. See, National Institute of Neurological Disorders and Stroke (NINDS). User Manual for the Quality of Life in Neurological Disorders (Neuro-QoL) Measures, Version 2.0, March 2015, which is incorporated herein by reference in its entirety.
(§4) A Phase 3, randomized, double-blind, placebo-controlled study to evaluate the efficacy, safety, and tolerability of once-daily valbenazine in subjects with HD was conducted. The study included a 4-week screening period, an 8-week dose-adjustment period, a 4-week maintenance period, and a final study visit 2 weeks following the final dose of study drug. […]

subjects with HD [3] = assay: Phase 3 study: Neuro-QoL Lower Extremity Function T-score
From the text: as §3, §4

subjects with HD [4] = assay: Phase 3 study: safety and tolerability (adverse events)
Method: as §1
During the dose-adjustment and maintenance periods, the investigator could assess that a dose level is not tolerated if a subject experienced an adverse event (AE) that is (1) deemed associated with the study drug, and (2) of either moderate or severe intensity, or a serious AE.

subjects with HD [5] = assay: Phase 3 study: Short Form 36 Health Survey (SF-36); settings: Week 12
From the text: as §2
The SF-36 is 36-item questionnaire that measures health on 8 dimensions. […]

subjects with HD [6] = assay: Phase 3 study: Huntington Disease Health Index (HD-HI); settings: for HD-HI hand and arm function subscale, change from baseline / HD-HI involuntary movements subscale, change from baseline / HD-HI mobility subscale, change from baseline: valbenazine group
From the text: as §2
The HD-HI includes 13 subscales that measure 13 individual areas of health in patients with HD. Observed values and change from baseline were summarized descriptively for each subscale and the total instrument score by treatment group and visit.

subjects with HD [7] = assay: Phase 3 study: EuroQol 5 Dimensions 5 Levels (EQ-5D-5L)
From the text: as §2, with “visit period […]” for “visit period”

subjects with HD [8] = assay: Phase 3 study: UHDRS functional assessment, independence scale, total functional capacity; settings: baseline to Week 12; either treatment group
From the text: as §2
The functional capacity portion of the UHDRS consists of 5 items. […]

Structure (SMILES): COc1cc2c(cc1OC)[C@H]1C[C@@H](OC(=O)[C@@H](N)C(C)C)[C@H](CC(C)C)CN1CC2 [Valbenazine, (S)-2-amino-3-methyl-butyric acid (2R,3R,11bR)-3-isobutyl-9,10-dimethoxy-1,3,4,6,7,11b-hexahydro-2H-pyrido[2,1-a]isoquinolin-2-yl ester]
- PGI-C response rate difference between treatment groups (valbenazine minus placebo) (subjects with HD [1]; Week 2): through 10 as follows: Week 2 (18.52% [95% CI: 5.48, 31.41],
- PGI-C response rate difference between treatment groups (valbenazine minus placebo) (subjects with HD [1]; Week 4): nominal p = 0.0042), Week 4 (18.57% [95% CI: 3.79, 32.70], nominal
- PGI-C response rate difference between treatment groups (valbenazine minus placebo) (subjects with HD [1]; Week 6): p = 0.0120), Week 6 (23.08% [95% CI: 5.60, 39.04], nominal
- PGI-C response rate difference between treatment groups (valbenazine minus placebo) (subjects with HD [1]; Week 8): p = 0.0064), Week 8 (26.44% [95% CI: 7.70, 42.49], nominal
- PGI-C response rate difference between treatment groups (valbenazine minus placebo) (subjects with HD [1]; Week 10): p = 0.0037), and Week 10 (16.94% [95% CI: −1.37, 34.63], nominal
- PGI-C @ week 12, % responders (subjects with HD [1]; Week 12, valbenazine group): 52.7%
- PGI-C @ week 12, % responders, Difference (subjects with HD [1]; Week 12, valbenazine vs placebo): 26.3%
- Neuro-QoL Upper Extremity Function T Score CFB @ week 12, LS Mean (subjects with HD [2]; valbenazine group): −1.58
- Neuro-QoL Upper Extremity Function T Score CFB @ week 12, LS Mean, Difference (subjects with HD [2]; valbenazine vs placebo): 1.42
- Neuro-QoL Lower Extremity Function T Score CFB @ week 12, LS Mean (subjects with HD [3]; valbenazine group): −0.27
- Neuro-QoL Lower Extremity Function T Score CFB @ week 12, LS Mean, Difference (subjects with HD [3]; valbenazine vs placebo): −0.88
- SAE and AE leading to discontinuation of study treatment (subjects with HD [4]; both treatment groups): comparable rates and low incidence
- rates of TEAEs (subjects with HD [4]; both treatment groups): comparable rates of TEAEs in both treatment groups
- tolerability (subjects with HD [4]; once-daily administration): well tolerated
- somnolence (most commonly reported AE), incidence (subjects with HD [4]; valbenazine group): 15.6%
- suicidal behavior or worsening of suicidal ideation (subjects with HD [4]; valbenazine treated subjects): No suicidal behavior or worsening of suicidal ideation was observed
- SF-36 subscales and summary scales, differences between treatment groups (subjects with HD [5]): No notable differences were observed at Week 12 between treatment
- SF-36 subscales or summary scales, worsening from baseline (subjects with HD [5]; valbenazine group): No worsening from baseline was observed for the valbenazine group
- HD-HI hand and arm function subscale, change from baseline (subjects with HD [6]; Week 10): −7.154
- HD-HI involuntary movements subscale, change from baseline (subjects with HD [6]; Week 10): −12.220
- HD-HI mobility subscale, change from baseline (subjects with HD [6]; Week 10): placebo for mobility (Week 10: −6.319 valbenazine vs −4.131
- HD-HI involuntary movements subscale, LS mean difference between treatment groups (subjects with HD [6]; Week 12, ANCOVA model): LS mean difference between treatment groups of −6.662 (95%
- HD-HI hand and arm function subscale, change from baseline (subjects with HD [6]; Week 12): −7.169
- HD-HI involuntary movements subscale, change from baseline (subjects with HD [6]; Week 12): −11.195
- HD-HI mobility subscale, change from baseline (subjects with HD [6]; Week 12): placebo; Week 12: −4.208 vs −2.708), involuntary movements (Week
- HD-HI total score, changes from baseline (subjects with HD [6]; Weeks 10 and 12): valbenazine group. No meaningful changes in the HD-HI total score
- EQ-5D-5L health index score and distribution of scores for each dimension, differences between treatment groups (subjects with HD [7]; baseline to Weeks 10 and 12): No notable differences between treatment groups were observed
- EQ-5D-5L shift toward worsening in any dimension (subjects with HD [7]; valbenazine group): index score and distribution of scores for each dimension. No shift
- UHDRS functional assessment, independence, and total functional capacity scores, changes from baseline (subjects with HD [8]): No clinically meaningful changes were noted from baseline to Week
